According to patent publication US20060094731A1, “New medicament” (priority 2003, published 2006):

Tests used:
[1] = tested on: patients with type 2 diabetes and nephropathy; conditions: literature studies (N Engl J Med 2001); correlating with reduction in onset of end-stage renal disease, no change in mortality rates; cited from earlier work
[2] = tested on: patients with diabetic nephropathy; assay: Double-blind, randomised, placebo-controlled study of 24-hour proteinuria on top of high-dose ARB
Method: The study was double-blind, randomised, and placebo-controlled. […] Patients were included if at the end of the 4-week treatment period with high-dose ARBs, their 24-hour proteinuria was >300 mg/24 h. They were randomised into 3 groups: 20 mg of compound A, 50 mg of compound A, or placebo once daily, on top of the high dose ARB. Treatment duration was 4 weeks. The primary variable was 24-hour proteinuria.
Out of the 23 randomised patients, 7 received compound A 20 mg, 8 received compound A 50 mg and 8 received placebo. The mean age (±SD) was similar for all 3 groups. The HbA1c level at entry was also similar for all 3 groups.

| SMILES | effect on proteinuria [1] | decrease in 24-hour proteinuria ([2]; compound A 50 mg once daily, 4 weeks, on top of high-dose ARB, mean ± SD, 8 patients) | mean decrease in 24-hour proteinuria ([2]; the 2 groups treated with compound A (20 mg and 50 mg), summary statement, called clinically relevant) |
| --- | --- | --- | --- |
| CCCCc1nc(Cl)c(CO)n1Cc1ccc(-c2ccccc2-c2nn[nH]n2)cc1 [losartan] | decrease in proteinuria | – | – |
| COc1ccccc1Oc1c(NS(=O)(=O)c2ccc(C)cn2)nc(-c2ccncc2)nc1OC [compound A] | – | −1.3±1.3 g/24 h | around 1 g/24 h |
| CCCCC1=NC2(CCCC2)C(=O)N1Cc1ccc(-c2ccccc2-c2nnn[nH]2)cc1 [irbesartan] | decrease in proteinuria | – | – |
